Data on 13 compounds can be found in publication PMC8119466, “A screen of FDA-approved drugs identifies inhibitors of protein tyrosine phosphatase 4A3 (PTP4A3 or PRL-3)” (Scientific Reports, 2021).

Series [1] has as its target T1, recombinant PRL-3 (Homo sapiens, UniProt O75365).
T1 construct: 6xHis (N, cleaved yes); made in house; host or cells: E. coli One Shot BL21 Star
As to the kind of experiment: In vitro phosphatase assay (DiFMUP hydrolysis), PRL-3. The series is classed as biochemical. The following applies: for IC50: 2.5 µM protein, DiFMUP at KM, read-out: Calculated IC50, PRL-3 phosphatase activity; for % Phosphatase Activity (compared to DMSO) PRL-3: FDA-approved drug screen.

Series [2] relates to HEK293T cells. As to the kind of experiment: MTT viability assay. The class given is cell-based, human. The conditions noted are these: drug doses 1 to 100 µM, 16 h, normalized to 1% DMSO. (Tetrazolium assays rely on reduction of a dye to a coloured formazan, in cell work by metabolically active cells.)
Experimental: Cells were seeded into duplicate wells of a 96 well plate at a density of 2 × 10^4 cells per well and allowed to recover for 24 h. Cells were then treated with drug or DMSO at the indicated concentrations for 16 h. Following drug treatment, 10 μL of 5 mg/ml MTT (Sigma, M5655) was added to each well and cells were incubated for 4 h. Finally, media were removed, and the dye was solubilized in 100 μL of 0.1 M HCl in isopropanol. Absorbance was measured at 570 nm and 690 nm with final absorbance measurements as 570–690 nm.
The target of series [3] is T2, recombinant PRL-2 (Homo sapiens, UniProt Q12974).
T2 construct: 6xHis (N, cleaved yes); made in house; host or cells: E. coli One Shot BL21 Star
T2 sequence (Q12974 1-167): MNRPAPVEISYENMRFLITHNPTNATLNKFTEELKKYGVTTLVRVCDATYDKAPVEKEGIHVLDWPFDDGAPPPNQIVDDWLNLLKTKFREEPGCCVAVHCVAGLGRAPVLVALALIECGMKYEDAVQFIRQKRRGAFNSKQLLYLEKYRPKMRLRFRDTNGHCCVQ
As to the kind of experiment: In vitro phosphatase assay (DiFMUP hydrolysis), PRL-2.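 As to all read-outs here: PRL-2 activity read as DiFMUP hydrolysis after 20 min at room temperature with drug, enzyme first pre-reduced at 4 °C for 20 min.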 The series is classed as biochemical. The conditions noted are these: for IC50: 2.5 µM protein, DiFMUP at KM, read-out: Calculated IC50, PRL-2 phosphatase activity; for % Phosphatase Activity (compared to DMSO) PRL-2: FDA-approved drug screen.

Series [4] deals with T3, recombinant PRL-1 (Homo sapiens, UniProt Q93096).
T3 construct: 6xHis (N, cleaved yes); made in house; host or cells: E. coli One Shot BL21 Star
T3 sequence (Q93096 1-173): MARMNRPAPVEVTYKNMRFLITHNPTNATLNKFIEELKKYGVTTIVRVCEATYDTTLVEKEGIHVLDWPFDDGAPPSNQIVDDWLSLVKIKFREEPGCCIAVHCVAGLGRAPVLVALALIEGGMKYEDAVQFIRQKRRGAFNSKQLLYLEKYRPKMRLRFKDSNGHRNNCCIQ
In words: In vitro phosphatase assay (DiFMUP hydrolysis), PRL-1. The class given is biochemical. The following applies: for IC50: 2.5 µM protein, DiFMUP at KM, read-out: Calculated IC50, PRL-1 phosphatase activity; for % Phosphatase Activity (compared to DMSO) PRL-1: FDA-approved drug screen.

The test system of series [5] is HEK293T cells. In words: Scratch (migration) assay, HEK293T transfected with PRL-3 or empty vector. The conditions noted are these: HEK293T transfected with PRL-3, 24 h, compared to DMSO. The series is classed as cell-based, human. On the procedure: pENTR-PRL-3 (previously described[51]) was cloned into pLKO-CMV-puro using LR clonase (Thermofisher, 11,791,019) according to manufacturer’s directions. pLKO-CMV empty vector (EV) and pLKO-CMV:PRL-3 were transfected into HEK293T using Lipofectamine 3000 (ThermoFisher, L3000015) according to manufacturer’s protocol. Transfected cells were selected with 1 µg/mL puromycin in complete media to establish the cell line, then were maintained under 0.5 µg/mL puromycin in complete media. For PRL-3 knockdown, pLKO.1-scrambled shRNA and pLKO.1-PRL-3 shRNA[51] plasmids were transfected into HCT116 cells using Lipofectamine 3000 (Thermo Fisher, Cat # L3000015) according to the manufacturer’s directions. Cells were selected for 48 h in 1 µg/mL puromycin before use in assays.
Cells were seeded into duplicate wells of a 48 well plates at a density of 2 × 10^5 cells per well for HEK293T or 4 × 10^5 for HCT116 and SW480. Cells were recovered overnight and were scratched using a p20 pipette tip the following day. Compounds were added at the concentrations indicated. Images were obtained immediately after the scratch and after a 24 h incubation with the drug on an Evos FL inverted microscope (ThermoFisher). The area within the scratch was calculated using ImageJ. The area migrated was measured as the difference in wound area at 0 h and 24 h and the percent change in migration was calculated by dividing the difference in wound area of treatment by the difference in wound area of the control.

T1 sequence (O75365 whole entry): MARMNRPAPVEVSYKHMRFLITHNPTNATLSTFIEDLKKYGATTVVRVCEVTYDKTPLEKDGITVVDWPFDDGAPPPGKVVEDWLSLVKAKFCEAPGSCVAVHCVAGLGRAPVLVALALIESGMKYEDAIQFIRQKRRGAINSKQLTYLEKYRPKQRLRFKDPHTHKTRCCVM

As a reminder, the IC50 is the midpoint of a concentration-inhibition curve. As for `Cc1cc(C(C#N)c2ccc(Cl)cc2)c(Cl)cc1NC(=O)c1cc(I)cc(I)c1O` (stereo not shown) [Closantel, reference compound], the concentration for half-maximal inhibition (IC50) in series [1] is 11 ± 0.5 µM; in series [3], 14 ± 5 µM; in series [4], 17 ± 3 µM. Moreover, the “% Phosphatase Activity (compared to DMSO) PRL-3” value in series [1] (compared to DMSO) stood at 40%. The “viability (MTT)” value in series [2] is “increased MTT absorbance”. Also, in series [3] (compared to DMSO), the “% Phosphatase Activity (compared to DMSO) PRL-2” value turned out to be 17%. Also, in series [4] (compared to DMSO), the “% Phosphatase Activity (compared to DMSO) PRL-1” value was determined as 16%.
Turning to `COc1cc(C(=O)O)ccc1NC(=O)[C@@H]1N[C@@H](CC(C)(C)C)[C@](C#N)(c2ccc(Cl)cc2F)[C@H]1c1cccc(Cl)c1F` [Idasanutlin, reference compound], the “cellular migration in PRL-3 overexpressing cells” value (“cellular migration” below) in series [5] was “less significant effects on the migration of PRL-3 expressing cells”. Moreover, the IC50 in series [1] was 13 ± 0.4 µM; in series [3], 16 ± 2 µM; in series [4], 20 ± 3 µM. Also, the “viability (MTT)” value in series [2] was “decreased viability”.
Take `CC(=O)c1cc2c(o1)C(=O)c1ccccc1C2=O` [Napabucasin, reference compound]: in series [5], the “cellular migration” value is “less significant effects on the migration of PRL-3 expressing cells”. The half-inhibitory concentration (IC50) was 0.7 ± 0.1 µM in series [1], 1.1 ± 0.3 µM in series [3] and 0.4 ± 0.2 µM in series [4]. For the same compound, the “% Phosphatase Activity (compared to DMSO) PRL-3” value in series [1] (compared to DMSO) stood at 10%. Moreover, the “viability (MTT)” value in series [2] was “decreased viability”. For the same compound, the “% Phosphatase Activity (compared to DMSO) PRL-2” value in series [3] (compared to DMSO) stood at 26%. The “% Phosphatase Activity (compared to DMSO) PRL-1” value in series [4] (compared to DMSO) came out at 16%.
Turning to `COCCn1c2c([n+](Cc3cnccn3)c1C)C(=O)c1ccccc1C2=O` [YM155, reference compound], the “cellular migration” value in series [5] was “less significant effects on the migration of PRL-3 expressing cells”. In addition, the results for the IC50 in series [1], in series [3] and in series [4] were 0.3 ± 0.1 µM, 0.7 ± 0.1 µM and 0.3 ± 0.1 µM, respectively. Moreover, the “viability (MTT)” value in series [2] is recorded as “decreased viability”.
For `NS(=O)(=O)Cc1noc2ccccc12` [Zonisamide], the “% Phosphatase Activity (compared to DMSO) PRL-3” value in series [1] (activity compared to DMSO) came to 78%. Also, in series [3] (activity compared to DMSO), the “% Phosphatase Activity (compared to DMSO) PRL-2” value is given as 89%. The “% Phosphatase Activity (compared to DMSO) PRL-1” value in series [4] (activity compared to DMSO) is on record as 104%.
`Cl.Cl.Cl.O[C@@H](COc1cccc2ncccc12)CN1CCN([C@@H]2c3ccccc3[C@@H]3[C@H](c4ccccc42)C3(F)F)CC1` [Zosuquidar (LY335979) 3HCl]: the “% Phosphatase Activity (compared to DMSO) PRL-3” value in series [1] (activity compared to DMSO) is recorded as 91%. For the same compound, in series [3] (activity compared to DMSO), the “% Phosphatase Activity (compared to DMSO) PRL-2” value is 98%. Further, in series [4] (activity compared to DMSO), the “% Phosphatase Activity (compared to DMSO) PRL-1” value turned out to be 107%.
Take `O[C@H]1[C@H](O)[C@@H](O)[C@H](O)[C@@H](O)[C@H]1O` [i-Inositol]: in series [1] (compared to DMSO), the “% Phosphatase Activity (compared to DMSO) PRL-3” value is listed as 87%. The “% Phosphatase Activity (compared to DMSO) PRL-2” value in series [3] (compared to DMSO) amounted to 112%. The “% Phosphatase Activity (compared to DMSO) PRL-1” value in series [4] (compared to DMSO) worked out at 94%.
As for `NCCCCCC(=O)O` [(6-)ε-Aminocaproic acid], the “% Phosphatase Activity (compared to DMSO) PRL-3” value in series [1] (compared to DMSO) is given as 75%. Further, in series [3] (compared to DMSO), the “% Phosphatase Activity (compared to DMSO) PRL-2” value was determined as 115%. Also, the “% Phosphatase Activity (compared to DMSO) PRL-1” value in series [4] (compared to DMSO) is 110%.
As for Atosiban Acetate, the “% Phosphatase Activity (compared to DMSO) PRL-3” value in series [1] (compared to DMSO) came to 90%. Moreover, the “% Phosphatase Activity (compared to DMSO) PRL-2” value in series [3] (compared to DMSO) is reported as 80%. Besides, the “% Phosphatase Activity (compared to DMSO) PRL-1” value in series [4] (compared to DMSO) stood at 86%.
Turning to Bacitracin, the “% Phosphatase Activity (compared to DMSO) PRL-3” value in series [1] (compared to DMSO) was found to be 82%. For the same compound, the “% Phosphatase Activity (compared to DMSO) PRL-2” value in series [3] (compared to DMSO) came to 94%. For the same compound, in series [4] (compared to DMSO), the “% Phosphatase Activity (compared to DMSO) PRL-1” value worked out at 96%.
As for Bivalirudin Trifluoroacetate, the “% Phosphatase Activity (compared to DMSO) PRL-3” value in series [1] (compared to DMSO) is given as 88%. Further, the “% Phosphatase Activity (compared to DMSO) PRL-2” value in series [3] (compared to DMSO) is 81%. Also, in series [4] (compared to DMSO), the “% Phosphatase Activity (compared to DMSO) PRL-1” value was 86%.
As to Capreomycin Sulfate, the “% Phosphatase Activity (compared to DMSO) PRL-3” value in series [1] (compared to DMSO) is 113%. In addition, the “% Phosphatase Activity (compared to DMSO) PRL-2” value in series [3] (compared to DMSO) turned out to be 95%. Further, the “% Phosphatase Activity (compared to DMSO) PRL-1” value in series [4] (compared to DMSO) was 95%.
Turning to Carbazochrome sodium sulfonate (AC-17), the “% Phosphatase Activity (compared to DMSO) PRL-3” value in series [1] (compared to DMSO) was 59%. In series [3] (compared to DMSO), the “% Phosphatase Activity (compared to DMSO) PRL-2” value is listed as 68%. Moreover, the “% Phosphatase Activity (compared to DMSO) PRL-1” value in series [4] (compared to DMSO) is on record as 74%.
